Where two headings read alike, the source gives them in different places.
Tested on: Hydractinia echinata
Experiment: Hydractinia echinata test system (HeTS): reduction of Cs+-induced metamorphosis of larvae
Assay type: in vivo
Details: for EC50: Hydractinia echinata
Protocol: The average (C) concentrations of these values were calculated too. The MRC50 value calculations (Chicu et al.) result from the graphical representation of the metamorphosis variation, M (%), (Y axis) function of the xenobiotic’s concentration (mol/L) (X axis), where the metamorphosis decreases with the rise of the xenobiotic’s concentration. Thus, the MRC50 value represents the xenobiotic’s concentration (mol/L) necessary for a 50% decrease of metamorphosis, with respect to control.
For each concentration of substance experiments were performed in triplicate and were repeated at least twice.
Colonies of H. echinata (Biologische Anstalt, Helgoland, Germany) were used to obtain eggs and larvae. The culture medium was artificial seawater (980 mosmol, pH 8.2, 18 °C). In laboratory an artificial metamorphosis can be synchronically started by the introduction of Cs^+ ions or by using seawater without Mg^2+ ions; it then lasts only 24 h. Under the action of external stimulus of Cs^+ ions or Cs^+ ions together with the tested compounds, one part of larvae further lives as such and another one is metamorphosized to the polyp form. The evaluation of the influence of the tested substance is very clear this way, the proposed method being based on this aspect.
H. echinata larvae were exposed to seawater containing Cs^+ and simultaneously one of the test substances for 3 h. The percentage of animals that underwent metamorphosis (development into polyps) was determined after 24 h. […] We chose a concentration of inducers which caused about […] to three quarters of the larvae to metamorphose in order to have conditions which are highly sensitive against an inhibitory influence. […] This concentration was termed MRC50 (for Metamorphosis Reduction Concentration) and is similar to the effective EC50 concentration that gives half maximal effective response.

[1] = product of enzymatic reduction/hydrolysis of the dye
[2] = product of enzymatic reduction/hydrolysis of the dye, read-out: F(1), F(2),... individual log(1/MRC50) toxicity value (converted)
[3] = MRC50 in mol/L = concentration for 50% decrease of metamorphosis vs control, larvae exposed 3 h with Cs+, read after 24 h, read-out: M: experimental Mlog(1/MRC50) (converted)
[4] = parent dye, Table 2, read-out: F(1+2+...)e experimental toxicity log(1/MRC50) (converted)
[5] = MRC50 in mol/L = concentration for 50% decrease of metamorphosis vs control, larvae exposed 3 h with Cs+, read after 24 h

Compound: 2-Aminocresol
- F(1), F(2),... individual log(1/MRC50) toxicity value [1]: 3.21

Compound: Nc1ccc(O)cc1O [2,4-DHA, 2,4-dihydroxyaniline]
- EC50 [2]: 0.55 µM

Compound: Nc1ccc(/C=C/c2ccc(N)cc2S(=O)(=O)O)c(S(=O)(=O)O)c1 [ADASDS, diaminostilbene disulfonic acid]
- F(1), F(2),... individual log(1/MRC50) toxicity value [1]: 3.43

Compound: Nc1ccc(C(=O)O)cc1 [APAB, p-aminobenzoic acid]
- EC50 [2]: 457 µM

Compound: Nc1ccc(S(=O)(=O)O)cc1 [APABS, p-aminobenzenesulfonic acid]
- F(1), F(2),... individual log(1/MRC50) toxicity value [1]: 2.81

Compound: Nc1ccc(C(=O)O)c(O)c1 [Ac p-AmS, p-aminosalicylic acid]
- EC50 (read-out: F(1), F(2),... individual log(1/MRC50) toxicity value (converted)): 1070 µM

Compound: COc1ccc(N=Nc2ccccc2)cc1 [Compound 1, (4-Methoxyphenyl) (phenyl)diazene]
- EC50 [3]: 6.31 µM
- EC50 [4]: 6.31 µM

Compound: O=C(O)c1ccc(N=Nc2ccccc2)cc1 [Compound 2, 4-(2-Phenyldiazen-1-yl)benzoic acid]
- EC50 [3]: 214 µM
- EC50 [4]: 214 µM

Compound: CN(C)c1ccc(/N=N/c2ccccc2C(=O)O)cc1 [Compound 3, Methyl Red]
- EC50 [3]: 209 µM

Compound: CN(C)c1ccc(N=Nc2ccccc2C(=O)[O-])cc1.[Na+] [Compound 4, Methyl Red (sodium salt)]
- M: experimental Mlog(1/MRC50) [5]: 3.79

Compound: Nc1ccc(/N=N/c2ccccc2C(=O)O)cc1C(=O)O [Compound 5, 2-Amino-5-[(E)-2-(2-carboxyphenyl)diazen-1-yl]benzoic acid]
- EC50 [3]: 26.3 µM

Compound: CCN(CC)c1ccc(N=Nc2ccc(C(=O)O)cc2)cc1 [Compound 6, 4-{2-[4-(Diethylamino)phenyl]diazen-1-yl}benzoic acid]
- EC50 [3]: 17 µM

Compound: O=C(O)c1ccc(N=Nc2ccc(O)cc2)cc1 [Compound 7, 4-[2-(4-Hydroxyphenyl)diazen-1-yl]benzoic acid]
- EC50 [3]: 479 µM
- EC50 [4]: 479 µM

Compound: O=C(O)c1ccc(/N=N/c2ccc(O)cc2O)cc1 [Compound 8, 4-[(E)-2-(2,4-dihydroxy-phenyl)diazen-1-yl]benzoic acid]
- EC50 [3]: 490 µM
- EC50 [4]: 490 µM

Compound: O=C(O)c1ccc(N=Nc2ccc(O)c(C(=O)O)c2)cc1 [Compound 9, 5-[2-(4-Carboxyphenyl)diazen-1-yl]-2-hydroxybenzoic acid]
- EC50 [3]: 447 µM
- EC50 [4]: 447 µM

Compound: O=S(=O)([O-])c1cccc(N=Nc2ccc(Nc3ccccc3)cc2)c1.[Na+] [Compound 12, Metanil Yellow (sodium salt)]
- M: experimental Mlog(1/MRC50) [5]: 4.17

Compound: CN(C)c1ccc(N=Nc2ccc(S(=O)(=O)[O-])cc2)cc1.[Na+] [Compound 14, Methyl Orange (Orange III)]
- M: experimental Mlog(1/MRC50) [5]: 3.74
- F(1+2+...)e experimental toxicity log(1/MRC50) (parent dye, Table 2): 3.74

Compound: Cc1ccc(N=Nc2ccc([N+](=O)[O-])cc2)c(O)c1 [Compound 20, 5-Methyl-2-[2-(4-nitrophenyl)-diazen-1-yl]phenol]
- EC50 [3]: 77.6 µM
- EC50 [4]: 77.6 µM

Compound: O=S(=O)(O)c1ccc(O)c(/N=N/c2ccc(O)cc2O)c1 [Compound 21, 3-[(E)-2-(2,4-dihydroxyphenyl)-diazen-1-yl]-4-hydroxybenzene-1-sulfonic acid]
- EC50 [3]: 53.7 µM

Compound: O=C(O)c1ccc(N=Nc2c(O)ccc3ccccc23)cc1 [Compound 23, 4-[2-(2-Hydroxynaphthalen-1-yl)diazen-1-yl]benzoic acid]
- EC50 [3]: 245 µM

Compound: O=C(O)c1ccc(N=Nc2c(O)c(C(=O)O)cc3ccccc23)cc1 [Compound 25, 4-[2-(4-Carboxyphenyl)diazen-1-yl]-3-hydroxynaphthalene-2-carboxylic acid]
- EC50 [3]: 355 µM

Compound: Nc1c(N=Nc2ccc(C(=O)O)cc2)ccc2ccccc12 [Compound 26, 4-[2-(1-Aminonaphthalen-2-yl)diazen-1-yl]benzoic acid]
- EC50 [3]: 18.6 µM

Compound: O=S(=O)([O-])c1ccc(N=Nc2c(O)ccc3ccccc23)cc1.[Na+] [Compound 28, Acid Orange 7]
- M: experimental Mlog(1/MRC50) [5]: 3.17

Compound: Cc1ccc(N=Nc2c(O)c(S(=O)(=O)[O-])cc3cc(S(=O)(=O)[O-])ccc23)c(C)c1.[Na+].[Na+] [Compound 38, Acid Red 26 (Ponceau Xilidine)]
- M: experimental Mlog(1/MRC50) [5]: 4.06

From paper PMC6270994, “The Hydractinia echinata Test-System. III: Structure-Toxicity Relationship Study of Some Azo-, Azo-Anilide, and Diazonium Salt Derivatives” (Molecules, 2014)
